According to article PMC10945501, “Development and In Vivo Evaluation of Small-Molecule Ligands for Positron Emission Tomography of Immune Checkpoint Modulation Targeting Programmed Cell Death 1 Ligand 1” (Journal of Medicinal Chemistry, 2024):

Legend:
human PD-L1 = target: T1, human PD-L1 (Homo sapiens, UniProt Q9NZQ7); test: HTRF PD-1/PD-L1 binding assay (cell-free); settings: for fold reduction of affinity, pyrrole at R1 vs 1,4-benzodioxanyl analogue: pairs 4c vs 4m, 4e vs 4n, 4f vs 4o, 5c vs 5f; for IC50: cell-free competitive PD-1/PD-L1 HTRF, mean ± SD, read-out: IC50 (hPD-L1 binding affinity, HTRF); for fold decrease in affinity by methylation at R3*: pairs 4c vs 5a, 4c vs 5b, 4e vs 5c, 4e vs 5d
T1 construct: purchased Cisbio Bioassays SAS, Codolet, France 64PD1PEG

[1] = Lipophilicity by HPLC method (μHPLC logD); settings: for μHPLC logD: pH 7.4; for chromatographic logD: pH 7.4, μHPLC logD

T1 sequence (Q9NZQ7 19-238 limits assumed): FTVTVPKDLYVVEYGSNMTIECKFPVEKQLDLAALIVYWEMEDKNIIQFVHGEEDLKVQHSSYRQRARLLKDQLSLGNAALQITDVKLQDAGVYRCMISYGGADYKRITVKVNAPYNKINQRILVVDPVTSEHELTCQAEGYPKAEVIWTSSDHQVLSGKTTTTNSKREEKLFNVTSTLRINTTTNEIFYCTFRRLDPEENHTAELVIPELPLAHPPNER

Structure (SMILES) | fold reduction of affinity, pyrrole at R1 vs 1,4-benzodioxanyl analogue (human PD-L1; IC50 ratio) | IC50 (human PD-L1) | μHPLC logD [1] | chromatographic logD [1] | fold decrease in affinity by methylation at R3* (human PD-L1; IC50 ratio) | fold decrease in affinity by fluoroethylation / fluoroethyl carbamylation at R3* (human PD-L1; IC50 ratio, pairs 4f vs 5h, 4j vs 5j)
Cc1c(COc2cc(OCc3ccnc(C#N)c3)c(CNCCO)cc2Cl)cccc1-n1cccc1 [Compound 4n, 4-((4-Chloro-2-(((2-hydroxyethyl)amino)methyl)-5-((2-methyl-3-(1H-pyrrol-1-yl)benzyl)oxy)phenoxy)methyl)picolinonitrile] | 6.40 fold | 50 ± 3 nM | 4.3 ± 0.2 | 4.34 ± 0.18 |  | 
Cc1c(COc2cc(OCc3ccnc(C#N)c3)c(CN3CCCC[C@H]3C(=O)O)cc2Cl)cccc1-n1cccc1 [Compound 4o, (S)-1-(5-Chloro-2-((2-cyanopyridin-4-yl)methoxy)-4-((2-methyl-3-(1H-pyrrol-1-yl)benzyl)oxy)benzyl)piperidine-2-carboxylic Acid] | 5.99 fold | 29 ± 3 nM |  | 3.14 ± 0.01 |  | 
COC(=O)[C@@H](CO)NCc1cc(Cl)c(OCc2cccc(-c3ccc4c(c3)OCCO4)c2C)cc1OCc1ccnc(C#N)c1 [Compound 5b, Methyl (5-Chloro-2-((2-cyanopyridin-4-yl)methoxy)-4-((3-(2,3-dihydrobenzo[b][1,4]dioxin-6-yl)-2-methylbenzyl)oxy)benzyl)-D-serinate] |  | 30 ± 8 nM | 4.9 ± 0.3 | 4.88 ± 0.26 | 4.98 fold | 
COCCNCc1cc(Cl)c(OCc2cccc(-c3ccc4c(c3)OCCO4)c2C)cc1OCc1ccnc(C#N)c1 [Compound 5d, 4-((4-Chloro-5-((3-(2,3-dihydrobenzo[b][1,4]dioxin-6-yl)-2-methylbenzyl)oxy)-2-(((2-methoxyethyl)amino)methyl)phenoxy)methyl)picolinonitrile] |  | 19 ± 4 nM | 5.1 ± 0.3 | 5.09 ± 0.29 | 2.42 fold | 
CC(=O)N1CCN(Cc2cc(Cl)c(OCc3cccc(-c4ccc5c(c4)OCCO5)c3C)cc2OCc2cccc(C#N)c2)C1=O [Compound 5e, 3-((2-((3-Acetyl-2-oxoimidazolidin-1-yl)methyl)-4-chloro-5-((3-(2,3-dihydrobenzo[b][1,4]dioxin-6-yl)-2-methylbenzyl)oxy)phenoxy)methyl)benzonitrile] |  | 589 ± 178 nM | 5.6 ± 0.4 | 5.61 ± 0.37 |  | 
Cc1c(COc2cc(OCc3ccnc(C#N)c3)c(CN(C)CCO)cc2Cl)cccc1-n1cccc1 [Compound 5f, 4-((4-Chloro-2-(((2-hydroxyethyl)(methyl)amino)methyl)-5-((2-methyl-3-(1H-pyrrol-1-yl)benzyl)oxy)phenoxy)methyl)picolinonitrile] | 1.61 fold | 16 ± 4 nM | 4.5 ± 0.2 | 4.54 ± 0.21 |  | 
Cc1c(COc2cc(OCc3ccnc(C#N)c3)c(CN3CCOC3CF)cc2Cl)cccc1-c1ccc2c(c1)OCCO2 (stereo not drawn) [Compound 5g, 4-((4-Chloro-5-((3-(2,3-dihydrobenzo[b][1,4]dioxin-6-yl)-2-methylbenzyl)oxy)-2-((2-(fluoromethyl)oxazolidin-3-yl)methyl)phenoxy)methyl)picolinonitrile] |  | 12 ± 2 nM |  | > 5.75 |  | 
Cc1c(COc2cc(OCc3ccnc(C#N)c3)c(CN3CCCC[C@H]3C(=O)OCCF)cc2Cl)cccc1-c1ccc2c(c1)OCCO2 [Compound 5h, 2-Fluoroethyl (S)-1-(5-Chloro-2-((2-cyanopyridin-4-yl)methoxy)-4-((3-(2,3-dihydrobenzo[b][1,4]dioxin-6-yl)-2-methylbenzyl)oxy)benzyl)piperidine-2-carboxylate] |  | 1290 nM |  | > 5.75 |  | 265 fold
Cc1c(COc2cc(OCc3ccnc(C#N)c3)c(CNCCF)cc2Cl)cccc1-c1ccc2c(c1)OCCO2 [Compound 5i, 4-((4-Chloro-5-((3-(2,3-dihydrobenzo[b][1,4]dioxin-6-yl)-2-methylbenzyl)oxy)-2-(((2-fluoroethyl)amino)methyl)phenoxy)methyl)picolinonitrile] |  | 12 ± 1 nM | 5.2 ± 0.3 | 5.21 ± 0.31 |  | 
